Reference: US20170176477A1 (Metanomics Health GmbH, priority 2012, published 2017)
Like-named read-outs stand apart in the source and are kept apart here.

What was measured:
[1] = rat, in vivo
Protocol: (§1) Animals accessed feed and water ad libitum.
(§2) For mass spectrometry-based MxP™ Broad Profiling analyses samples were extracted by a proprietary method yielding a lipid and polar fraction which were used for GC-MS (gas chromatography-mass spectrometry) and LC-MS/MS (liquid chromatography-MS/MS) analyses, respectively. For GC-MS analytics the samples were sequentially derivatized before measurement and the non-polar fraction was treated with methanol under acidic conditions to yield the fatty acid methyl esters derived from both free fatty acids and hydrolyzed complex lipids. The non-polar and polar fractions were further derivatized before GC-MS analysis (Roessner et al., Technical advance: simultaneous analysis of metabolites in potato tuber by gas chromatography-mass spectrometry. Plant J. 2000; 23:131-42). In LC-MS/MS analysis a metanomics proprietary technology was applied which allows target and high sensitivity MRM (Multiple Reaction Monitoring) profiling in parallel to full scan analyses (patent WO2003073464). For LC-MS analysis, both fractions were reconstituted in appropriate solvent mixtures. HPLC (high-performance liquid chromatography) was performed on reversed phase separation columns. Data were normalized by the corresponding median of reference samples which derived from a pool formed from aliquots of all samples to account for inter- and intra-instrumental variation. Therefore, pool-normalized semi-quantitative metabolite data were obtained.

mouse liver tissue = details: cited from earlier work
mouse/rat liver tissue = details: after administration of hepatotoxic doses of carbon tetrachloride; cited from earlier work
[2] = Metabolite profiling of plasma (GC-MS and LC-MS/MS) of rats treated with APAP vs. vehicle; details: for plasma metabolite in treated (1250 mg/kg) vs. untreated animals: FIG. 1, rats, 1250 mg/kg APAP vs. vehicle, most obvious at 6 and 24 hours; for 1250 mg vs. 0 mg (6 h) Ratio / 1250 mg vs. 0 mg (3 d) Ratio / 1250 mg vs. 0 mg (7 d) Ratio: rat plasma metabolite level, treated with 1250 mg/kg APAP vs. untreated, ANOVA; for 1250 mg vs. 0 mg (3 d) Ratio: 3 days; for 1250 mg vs. 0 mg (7 d) Ratio: 7 days
Protocol: as §1, §2

plasma metabolite in treated (1250 mg/kg) vs. untreated animals [1]	plasma metabolite in treated (1250 mg/kg) vs. untreated animals [2]	1250 mg vs. 0 mg (6 h) Ratio [2]	1250 mg vs. 0 mg (3 d) Ratio [2]	1250 mg vs. 0 mg (7 d) Ratio [2]	differences between the test and the control samples [1]	Compound	tissue levels of putrescine (mouse liver tissue; 18 hours after administration of acetaminophen)	putrescine in mouse liver tissue after treatment with acetaminophen (mouse liver tissue; mouse liver tissue)	tissue levels of putrescine (mouse liver tissue; tissue samples obtained after 6 and 12 hours)	putrescine in mouse/rat liver tissue (mouse/rat liver tissue)
increased	–	–	–	–	–	NCCCCN [Putrescine, Butane-1,4-diamine]	Elevated	increased	no elevated putrescine levels	increased
–	increased	1.52	1.06	1.07	–	NCCOP(=O)(O)O [O-Phosphoethanolamine, o-phosphoethanolamine]	–	–	–	–
–	increased	1.28	1.04	1.02	–	O[C@H]1[C@H](O)[C@@H](O)[C@H](O)[C@@H](O)[C@H]1O [myo-Inositol, lipid fraction, myo-inositol]	–	–	–	–

Further lines, the compound ahead of its results:

Compound	plasma metabolite in treated (1250 mg/kg) vs. untreated animals [1]	plasma metabolite in treated (1250 mg/kg) vs. untreated animals [2]	1250 mg vs. 0 mg (6 h) Ratio [2]	1250 mg vs. 0 mg (3 d) Ratio [2]	1250 mg vs. 0 mg (7 d) Ratio [2]	differences between the test and the control samples [1]	tissue levels of putrescine (mouse liver tissue; 18 hours after administration of acetaminophen)	putrescine in mouse liver tissue after treatment with acetaminophen (mouse liver tissue; mouse liver tissue)	tissue levels of putrescine (mouse liver tissue; tissue samples obtained after 6 and 12 hours)	putrescine in mouse/rat liver tissue (mouse/rat liver tissue)
Lysophosphatidylcholine (C18:1)	–	decreased	0.95	1.10	1.02	–	–	–	–	–
CC(=O)Nc1ccc(O)cc1 [APAP, N-(4-hydroxyphenyl)acetamide, reference compound]	–	–	–	–	–	no statistically significant differences	–	–	–	–
